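Five compound concentrations were applied to cells in 96-well plates for 48 hours; endpoints were derived by simple linear interpolation of the resulting dose-response curve. GI50: concentration for 50% inhibition of growth.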 Calls of active or inactive are those of the source. No stated cut-off is given here; in the data, active = GI50 up to about 1.1 µM and inactive = higher.
Tests used:
Test in all cases: NCI anticancer screen, dose series, 48 h
[1] = system: HCT-116
[2] = system: OVCAR-3
[3] = system: A498
[4] = system: Hs-578T
[5] = system: SF-295
[6] = system: COLO 205
[7] = system: NCI-H23
[8] = system: Malme-3M
[9] = system: CCRF-CEM
[10] = system: TK-10
[11] = system: MDA-MB-435
[12] = system: NCI-H460
[13] = system: SF-268
[14] = system: LOX IMVI
[15] = system: OVCAR-5
[16] = system: UACC-62
[17] = system: PC-3
[18] = system: HOP-62
[19] = system: CAKI-1
[20] = system: RPMI-8226
[21] = system: MOLT-4
[22] = system: A549
[23] = system: HL-60
[24] = system: SN12C
[25] = system: DU-145
[26] = system: SK-MEL-2
[27] = system: 786-0
[28] = system: NCI-H522
[29] = system: EKVX
[30] = system: HT-29
[31] = system: BT-549
[32] = system: U-251
[33] = system: M14
[34] = system: SW-620
[35] = system: HCC 2998
[36] = system: MCF7
[37] = system: MDA-N
[38] = system: MDA-MB-231
[39] = system: UACC-257
[40] = system: RXF 393
[41] = system: SNB-75
[42] = system: OVCAR-8
[43] = system: SF-539
[44] = system: SK-MEL-28
[45] = system: K562
[46] = system: UO-31
[47] = system: KM12
[48] = system: SNB-19
[49] = system: SK-MEL-5
[50] = system: IGROV-1
[51] = system: HOP-92
[52] = system: SK-OV-3
[53] = system: T47D
[54] = system: HCT-15
[55] = system: SR
[56] = system: ACHN
[57] = system: NCI/ADR-RES

COc1ccc(C(CC2(c3ccc(OC)cc3)SCCCS2)NC(C)=O)cc1 (configuration not stated) was tested, and the GI50 [1] was 56.1 µM (inactive), the GI50 [2] was 45.6 µM (inactive) and the GI50 [3] was 90.6 µM (inactive). The GI50 [4] was 86.7 µM (inactive), the GI50 [5] was 33.8 µM (inactive) and the GI50 [6] was 25.1 µM (inactive). The GI50 [7] was 29.4 µM (inactive), the GI50 [8] was 86.9 µM (inactive) and the GI50 [9] was 21.9 µM (inactive). For the same compound, the GI50 [10] was 39.8 µM (inactive), the GI50 [11] was 40.7 µM (inactive) and the GI50 [12] was 40.7 µM (inactive). The GI50 [13] was 87.3 µM (inactive), the GI50 [14] was 85.5 µM (inactive) and the GI50 [15] was > 100 µM (inactive). For the same compound, the GI50 [16] was > 100 µM (inactive), the GI50 [17] was 23.8 µM (inactive) and the GI50 [18] was 47.1 µM (inactive). For the same compound, the GI50 [19] was 72.3 µM (inactive), the GI50 [20] was 38.5 µM (inactive) and the GI50 [21] was 30.1 µM (inactive). For the same compound, the GI50 [22] was 55.8 µM (inactive), the GI50 [23] was 18.7 µM (inactive) and the GI50 [24] was 29.6 µM (inactive). The GI50 [25] was 44.6 µM (inactive), the GI50 [26] was 41.3 µM (inactive) and the GI50 [27] was > 100 µM (inactive). The GI50 [28] was 29.2 µM (inactive), the GI50 [29] was 52.8 µM (inactive) and the GI50 [30] was 65.2 µM (inactive). The GI50 [31] was 41.9 µM (inactive), the GI50 [32] was 38.8 µM (inactive) and the GI50 [33] was 94 µM (inactive). The GI50 [34] was 47.8 µM (inactive), the GI50 [35] was 42.6 µM (inactive) and the GI50 [36] was 37.2 µM (inactive). For the same compound, the GI50 [37] was 61 µM (inactive), the GI50 [38] was > 100 µM (inactive) and the GI50 [39] was 26.2 µM (inactive). The GI50 [40] was 67.9 µM (inactive), the GI50 [41] was 32.4 µM (inactive) and the GI50 [42] was 42.3 µM (inactive). For the same compound, the GI50 [43] was > 100 µM (inactive), the GI50 [44] was > 100 µM (inactive) and the GI50 [45] was 35.4 µM (inactive). The GI50 [46] was 96.4 µM (inactive), the GI50 [47] was 45.4 µM (inactive) and the GI50 [48] was 99.1 µM (inactive). The GI50 [49] was 18.4 µM (inactive), the GI50 [50] was > 100 µM (inactive) and the GI50 [51] was 83.6 µM (inactive). The GI50 [52] was 40.8 µM (inactive), the GI50 [53] was 24.2 µM (inactive) and the GI50 [54] was 37 µM. The GI50 [55] was 71.3 µM (inactive), the GI50 [56] was 63 µM (inactive) and the GI50 [57] was 21.2 µM (inactive).
